The target in test [1] is T1, CDK7/CycH/MAT1 (Homo sapiens, UniProt P50613).
T1 construct: purchased ProQinase 0366-0360-4
The experiment in a line: Kinase Glo Assay. The conditions noted are these: Kinase-Glo Assay was used (compounds marked *), ATP 1 μM, 60 minutes at room temperature. It counts as biochemical. The protocol:
(§1) Assay Buffer: 50 mM HEPES, 3 mM MgCl2, 3 mM MnCl2, 1 mM DTT, 3 μM Na3VO4, pH 7.5
Kinase-Glo™ Assay (Promega #: V6711): ATP: 10 mM, Kinase-Glo™ Reagent 384-well white assay plates
A ten point serial dilution of compound was prepared at 5× concentration in assay buffer with the final assay concentrations starting at 30 μM, 10 μM, 3 μM, 1 μM . . . 0 μM. Enzyme and ATP were used at 40 ng and 1 μM, respectively. The assay plate was set up by mixing the components in a total reaction volume of 10 μL per well. The plate was centrifuged gently for 10 seconds and incubated at room temperature (RT) for 60 minutes in the dark. The Kinase-Glo Reagent was added and incubated as recommended. The reaction was quantified by measuring luminescence on the Perkin Elmer Envision plate reader. Data was analyzed using Graphpad Prism 7 software.

Test [2] addresses T1, CDK7/CycH/MAT1. The experiment in a line: Kinase ADP-Glo Assay. It counts as biochemical. The note with it: ADP-Glo assay (compounds without *), ATP 1 μM, 60 minutes at room temperature. The method, then: as §1
Substrate RB: CTF Peptide (ProQinase #: 0040-0000-6)
ADP-Glo™ Assay (Promega #: V9101): ATP: 10 mM, ADP-Glo™ Reagent, Kinase Detection Reagent
384-well white assay plates
A ten point serial dilution of compound was prepared at 5× concentration in assay buffer with the final assay concentrations starting at 30 μM, 10 μM, 3 μM, 1 μM . . . 0 μM. Enzyme, substrate, and ATP were used at 40 ng, 200 ng (or 400 ng)^+ and 1 μM, respectively. The assay plate was set up by mixing the components in a total reaction volume of 10 μL per well. The plate was centrifuged gently for 10 seconds and incubated at room temperature (RT) for 60 minutes in the dark. The ADP-Glo Reagent and kinase detection reagent were added and incubated as recommended. The reaction was quantified by measuring luminescence on the Perkin Elmer Envision plate reader. Data was analyzed using Graphpad Prism 7 software. *With CDK2 enzyme, 400 ng of substrate was used.

Counter-ions that a name gives are not always drawn.

T1 sequence (P50613 whole entry): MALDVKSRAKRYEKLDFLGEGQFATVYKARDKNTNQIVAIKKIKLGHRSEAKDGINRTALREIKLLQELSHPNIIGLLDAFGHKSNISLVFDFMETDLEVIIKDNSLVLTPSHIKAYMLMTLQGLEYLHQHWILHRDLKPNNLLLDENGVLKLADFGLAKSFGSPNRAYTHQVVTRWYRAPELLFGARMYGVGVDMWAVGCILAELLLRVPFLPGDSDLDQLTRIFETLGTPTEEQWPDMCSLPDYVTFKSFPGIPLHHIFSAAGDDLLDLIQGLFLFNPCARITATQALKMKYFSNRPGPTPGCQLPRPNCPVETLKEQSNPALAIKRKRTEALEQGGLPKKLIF
T1 sequence (P51946 whole entry partner): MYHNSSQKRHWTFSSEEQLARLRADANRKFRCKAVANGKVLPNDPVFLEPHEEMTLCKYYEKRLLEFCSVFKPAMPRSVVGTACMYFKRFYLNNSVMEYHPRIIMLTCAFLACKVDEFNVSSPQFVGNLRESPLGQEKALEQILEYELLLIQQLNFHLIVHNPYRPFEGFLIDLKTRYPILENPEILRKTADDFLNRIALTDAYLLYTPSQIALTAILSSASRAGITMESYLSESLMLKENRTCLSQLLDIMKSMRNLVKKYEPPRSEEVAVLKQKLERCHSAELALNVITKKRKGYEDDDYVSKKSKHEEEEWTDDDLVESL
T1 sequence (P51948 whole entry partner): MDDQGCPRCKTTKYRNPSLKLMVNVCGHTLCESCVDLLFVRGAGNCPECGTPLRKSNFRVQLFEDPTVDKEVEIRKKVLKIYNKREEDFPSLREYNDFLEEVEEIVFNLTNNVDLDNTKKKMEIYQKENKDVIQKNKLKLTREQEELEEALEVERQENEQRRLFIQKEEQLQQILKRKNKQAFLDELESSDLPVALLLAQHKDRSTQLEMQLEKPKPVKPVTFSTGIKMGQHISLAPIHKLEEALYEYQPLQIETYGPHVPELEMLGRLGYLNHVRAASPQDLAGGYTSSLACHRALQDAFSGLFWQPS

Consider `Fc1cccc(Nc2cc(N[C@H]3CCCNC3)nc3c(C4CC4)cnn23)c1` [Compound I-19, hydrochloride], for which, on CDK7/CycH/MAT1 [1], the IC50 was 100 to 1000 nM.

On to `Fc1cccc(Nc2cc(N[C@H]3CCCCNC3)nc3c(C4CC4)cnn23)c1` [Compound I-5, (S)-N^5-(azepan-3-yl)-3-cyclopropyl-N^7-(3-fluorophenyl)pyrazolo[1,5-a]pyrimidine-5,7-diamine], for which the IC50 against CDK7/CycH/MAT1 [1] was over 1000 nM.

In turn, `N#Cc1cnn2c(NCc3cc(Cl)cc(Cl)c3)cc(N[C@H]3CCCNC3)nc12` [Compound I-26, (S)-7-((3,5-dichlorobenzyl)amino)-5-((piperidin-3-yl)amino)pyrazolo[1,5-a]pyrimidine-3-carbonitrile] registered a 50% inhibitory concentration (IC50) against CDK7/CycH/MAT1 [1] of 100 to 1000 nM.

For the molecule `O[C@H]1CCNC[C@@H]1Nc1cc(Nc2cccc(F)c2)n2ncc(C3CCC3)c2n1` [Compound I-24, (3S,4S)-3-((3-cyclobutyl-7-((3-fluorophenyl)amino)pyrazolo [1,5-a]pyrimidin-5-yl)amino)piperidin-4-ol hydrochloride], the IC50 on CDK7/CycH/MAT1 [1] is over 1000 nM.

`OCCN1CCC[C@H](Nc2cc(NCc3cccc(F)c3)n3ncc(C4CC4)c3n2)C1` [Compound I-33, (S)-2-(3-((3-cyclopropyl-7-((3-fluorobenzyl)amino)pyrazolo [1,5-a]pyrimidin-5-yl)amino)piperidin-1-yl)ethan-l-ol]: on CDK7/CycH/MAT1 [1], the IC50 is 100 to 1000 nM.

`O[C@H]1CCNC[C@@H]1Nc1cc(Nc2cccc(F)c2)n2ncc(Cl)c2n1` [Compound I-3, (3S,4S)-3-((3-chloro-7-((3-fluorophenyl)amino)pyrazolo [1,5-a]pyrimidin-5-yl)amino)piperidin-4-ol]: at CDK7/CycH/MAT1 [1], the half-maximal inhibitory concentration (IC50) is over 1000 nM.

`Fc1cccc(Nc2cc(N[C@H]3CCCNC3)nc3c(C4CCC4)cnn23)c1` [Compound I-23, (S)-3-cyclobutyl-N^7-(3-fluorophenyl)-N^5-(piperidin-3-yl)pyrazolo[1,5-a]pyrimidine-5,7-diamine hydrochloride] came in with an IC50 on CDK7/CycH/MAT1 [1] of 100 to 1000 nM.

For `Cc1cc(F)cc(Nc2cc(NC[C@H]3CCNC[C@@H]3O)nc3c(C4CCC4)cnn23)c1` [Compound I-52, (3R,4R)-((3-cyclobutyl-7-((3-fluoro-5-methylphenyl)amino)pyrazolo [1,5-a]pyrimidin-5-yl)aminomethyl)piperidin-3-ol], the half-inhibitory concentration (IC50) against CDK7/CycH/MAT1 [2] was under 100 nM.

`N#Cc1cc(F)cc(Nc2cc(OC[C@H]3CCCNC3)nc3c(C4CCC4)cnn23)c1` [Compound I-60, (S)-3-((3-cyclobutyl-5-((piperidin-3-yl)methoxy)pyrazolo[1,5-a]pyrimidin-7-yl)amino)-5-fluorobenzonitrile] returned an IC50 against CDK7/CycH/MAT1 [2] of over 1000 nM.

Molecule `Clc1cccc(Nc2cc(N[C@H]3CCCNC3)nc3c(C4CC4)cnn23)c1` [Compound I-18] yielded a half-inhibitory concentration (IC50) at CDK7/CycH/MAT1 [2] of under 100 nM.

`N#Cc1cnn2c(NCc3cc(F)cc(Cl)c3)cc(N[C@H]3CCCNC3)nc12` [Compound I-27, (S)-7-((3-chloro-5-fluorobenzyl)amino)-5-((piperidin-3-yl)amino)pyrazolo[1,5-a]pyrimidine-3-carbonitrile]: at CDK7/CycH/MAT1 [1], the half-inhibitory concentration (IC50) was 100 to 1000 nM.

`Cc1cc(F)cc(Nc2cc(NC[C@H]3CCCNC3)nc3c(C4CCC4)cnn23)c1` [Compound I-59, (S)-3-cyclobutyl-N^7-(3-fluoro-5-methylphenyl)-N^5-((piperidin-3-yl)methyl)pyrazolo[1,5-a]pyrimidine-5,7-diamine] came in with an IC50 at CDK7/CycH/MAT1 [2] of over 1000 nM.

For the molecule `Fc1cccc(Nc2cc(OC[C@H]3CCCNC3)nc3c(C4CC4)cnn23)c1` [Compound I-14], the IC50 on CDK7/CycH/MAT1 [2] was 100 to 1000 nM.

In the case of `Cc1cc(C#N)cc(Nc2cc(O[C@H]3CCCNC3)nc3c(C4CCC4)cnn23)c1` [Compound I-70, (S)-3-((3-cyclobutyl-5-((piperidin-3-yl)oxy)pyrazolo[1,5-a]pyrimidin-7-yl)amino)-5-methylbenzonitrile], at CDK7/CycH/MAT1 [2], the 50% inhibitory concentration (IC50) is under 100 nM.

`FC(F)(F)c1cccc(Nc2cc(N[C@H]3CCCNC3)nc3c(C4CC4)cnn23)c1` [Compound I-8] showed an IC50 against CDK7/CycH/MAT1 [2] of under 100 nM.

With `O[C@H]1CNCC[C@@H]1CNc1cc(Nc2cc(F)cc(F)c2)n2ncc(C3CC3)c2n1` [Compound I-46, (3R,4R)-4-((3-cyclopropyl-7-((3,5-difluorophenyl)amino)pyrazolo[1,5-a]pyrimidin-5-yl)aminomethyl)piperidin-3-ol], the 50% inhibitory concentration (IC50) against CDK7/CycH/MAT1 [2] was in the range of 100 to 1000 nM.

Turning to `Clc1cccc(Nc2cc(N[C@H]3CCCNC3)nc3c(Cl)cnn23)c1` [Compound I-1, (S)-3-chloro-N^7-(3 - chlorophenyl)-N^5-(piperidin-3-yl)pyrazolo[1,5-a]pyrimidine-5,7-diamine], the IC50 against CDK7/CycH/MAT1 [1] was 100 to 1000 nM.

With `Fc1cccc(Nc2cc(N[C@H]3CCCNC3)nc3c(Cl)cnn23)c1` [Compound I-2, (S)-3-chloro-N^7-(3-fluorophenyl)-N^5-(piperidin-3-yl)pyrazolo[1,5-a]pyrimidine-5,7-diamine], the concentration for half-maximal inhibition (IC50) against CDK7/CycH/MAT1 [1] was under 100 nM.

Turning to `Cc1cc(Nc2cc(O[C@H]3CCCNC3)nc3c(C4CC4)cnn23)cc(C(F)(F)F)c1` [Compound I-61, (S)-3-cyclopropyl-N-(5-methyl-3-trifluoromethylphenyl)-5-((piperidin-3-yl)oxy)pyrazolo[1,5-a]pyrimidin-7-amine], the half-maximal inhibitory concentration (IC50) against CDK7/CycH/MAT1 [2] was in the range of 100 to 1000 nM.

As for `Cc1cc(C#N)cc(Nc2cc(NC[C@H]3CCNC[C@@H]3O)nc3c(C4CC4)cnn23)c1` [Compound I-54, (3R,4R)-3-((3-cyclopropyl-5-((3-hydroxypiperidin-4-yl)methylamino)pyrazolo[1,5-a]pyrimidin-7-yl)amino)-5-methylbenzonitrile], at CDK7/CycH/MAT1 [2], the half-maximal inhibitory concentration (IC50) was under 100 nM.

For `Fc1cccc(CNc2cc(N[C@H]3CCCNC3)nc3c(C4CC4)cnn23)c1` [Compound I-32, (S)-3-cyclopropyl-N^7-(3-fluorobenzyl)-N^5-(piperidin-3-yl)pyrazolo[1,5-a]pyrimidine-5,7-diamine hydrochloride], at CDK7/CycH/MAT1 [1], the IC50 lay within 100 to 1000 nM.

At CDK7/CycH/MAT1 [1], `N#Cc1cnn2c(NCc3cccc(Cl)c3)cc(N[C@H]3CCCNC3)nc12` [Compound I-28, (S)-7-((3-chlorobenzyl)amino)-5-((piperidin-3-yl)amino)pyrazolo[1,5-a]pyrimidine-3-carbonitrile] yielded a 50% inhibitory concentration (IC50) of 100 to 1000 nM.

For the molecule `O[C@@H]1CNCC[C@@H]1CNc1cc(Nc2cccc(F)c2)n2ncc(C3CC3)c2n1` [Compound I-12, (3S,4R)-4-((3-cyclopropyl-7-((3-fluorophenyl)amino)pyrazolo [1,5-a]pyrimidin-5-yl)aminomethyl)piperidin-3-ol], on CDK7/CycH/MAT1 [2], the IC50 fell in the range of 100 to 1000 nM.

For the molecule `Fc1cccc(Nc2cc(NC[C@H]3CCCNC3)nc3c(C4CC4)cnn23)c1` [Compound I-13], the IC50 against CDK7/CycH/MAT1 [2] is over 1000 nM.
